Measured values: US6656932B2, “Benzo thiadiazine matrix metalloproteinase inhibitors” (Warner-Lambert Company, priority 2001, dated 2003)

Key:
Type in all cases: biochemical
[1] = target: MMP-9FL (full-length Gelatinase B) (Homo sapiens, UniProt P14780); experiment: Thiopeptolide hydrolysis assay, MMP-9FL; conditions: Table 2; thiopeptolide substrate, HEPES pH 7.0; read-out: IC50 (μM) Versus Certain MMPs: MMP09 (FL)
Description: (§1) The invention compounds of Formula I have been evaluated in standard assays for their ability to inhibit the catalytic activity of various MMP enzymes.
(§2) Thiopeptolide substrates show virtually no decomposition or hydrolysis at or below neutral pH in the absence of a matrix metalloproteinase enzyme.
(§3) Several representative compounds have been evaluated for their ability to inhibit various matrix metalloproteinase enzymes.

[2] = target: MMP-14CD (catalytic domain of MMP-14) (Homo sapiens, UniProt P50281); experiment: Thiopeptolide hydrolysis assay, MMP-14CD; conditions: Table 2; thiopeptolide substrate, HEPES pH 7.0; read-out: IC50 (μM) Versus Certain MMPs: MMP14 (CD)
Description: as §1, §2, §3

[3] = target: MMP-3CD (catalytic domain of stromelysin-1) (Homo sapiens, UniProt P08254); experiment: Thiopeptolide hydrolysis assay, MMP-3CD; conditions: Table 2; thiopeptolide substrate, MES buffer pH 6.0; read-out: IC50 (μM) Versus Certain MMPs: MMP03 (CD)
Experimental: as §1, §2, §3
It should be appreciated that the assay buffer used with MMP-3CD was 50 mM of N-morpholinoethane sulfonate (“MES”) at pH 6.0 rather than the HEPES buffer at pH 7.0 described above.

[4] = target: T1, MMP-1FL (full-length interstitial collagenase) (Homo sapiens, UniProt P03956); experiment: Thiopeptolide hydrolysis assay, MMP-1FL; conditions: Table 2; thiopeptolide substrate, HEPES pH 7.0; read-out: IC50 (μM) Versus Certain MMPs: MMP01 (FL)
T1 sequence (P03956 100-469): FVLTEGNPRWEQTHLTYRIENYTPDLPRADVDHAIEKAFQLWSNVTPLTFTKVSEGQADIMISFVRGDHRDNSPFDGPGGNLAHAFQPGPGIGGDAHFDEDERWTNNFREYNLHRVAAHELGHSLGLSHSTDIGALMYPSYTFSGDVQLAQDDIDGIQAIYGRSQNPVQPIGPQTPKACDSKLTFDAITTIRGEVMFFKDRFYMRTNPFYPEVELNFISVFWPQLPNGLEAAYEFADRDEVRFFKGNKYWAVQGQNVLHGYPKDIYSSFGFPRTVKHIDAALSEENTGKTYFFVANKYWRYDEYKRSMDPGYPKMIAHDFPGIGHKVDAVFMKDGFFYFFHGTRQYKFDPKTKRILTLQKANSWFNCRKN
Description: as §1, §2, §3

[5] = target: T2, MMP-7FL (full-length matrilysin) (Homo sapiens, UniProt P09237); experiment: Thiopeptolide hydrolysis assay, MMP-7FL; conditions: Table 2; thiopeptolide substrate, HEPES pH 7.0; read-out: IC50 (μM) Versus Certain MMPs: MMP07 (FL)
T2 sequence (P09237 95-267): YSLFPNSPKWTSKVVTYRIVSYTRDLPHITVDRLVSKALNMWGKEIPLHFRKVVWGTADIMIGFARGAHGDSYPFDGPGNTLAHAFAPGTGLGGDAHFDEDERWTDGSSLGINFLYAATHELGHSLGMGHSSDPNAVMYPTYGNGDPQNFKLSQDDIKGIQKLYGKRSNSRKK
Description: as §1, §2, §3

[6] = target: T3, MMP-2FL (full-length Gelatinase A) (Homo sapiens, UniProt P08253); experiment: Thiopeptolide hydrolysis assay, MMP-2FL; conditions: Table 2; thiopeptolide substrate, HEPES pH 7.0; read-out: IC50 (μM) Versus Certain MMPs: MMP02 (FL)
T3 sequence (P08253 110-660): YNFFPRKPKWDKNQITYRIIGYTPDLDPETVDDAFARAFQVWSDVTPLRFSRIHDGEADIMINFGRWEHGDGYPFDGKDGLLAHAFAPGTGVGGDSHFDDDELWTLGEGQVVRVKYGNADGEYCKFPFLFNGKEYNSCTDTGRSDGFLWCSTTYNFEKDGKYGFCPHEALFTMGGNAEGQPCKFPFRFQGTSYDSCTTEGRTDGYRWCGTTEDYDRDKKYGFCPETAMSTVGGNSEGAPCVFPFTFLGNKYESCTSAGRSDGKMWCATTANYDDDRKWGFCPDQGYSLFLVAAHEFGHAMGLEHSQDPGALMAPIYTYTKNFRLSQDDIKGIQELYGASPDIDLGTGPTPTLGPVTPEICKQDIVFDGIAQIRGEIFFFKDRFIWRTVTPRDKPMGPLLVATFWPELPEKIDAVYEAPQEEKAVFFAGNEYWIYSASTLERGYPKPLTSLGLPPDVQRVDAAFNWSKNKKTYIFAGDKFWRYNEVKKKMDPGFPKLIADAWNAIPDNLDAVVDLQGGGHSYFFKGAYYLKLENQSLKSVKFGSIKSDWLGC
Description: as §1, §2, §3

[7] = target: MMP-13CD (catalytic domain of collagenase 3) (Homo sapiens, UniProt P45452); experiment: Thiopeptolide hydrolysis assay, MMP-13CD; conditions: Table 2; thiopeptolide substrate, HEPES pH 7.0; read-out: IC50 (μM) Versus Certain MMPs: MMP13 (CD)
Description: as §1, §2, §3

MMP-9FL (full-length Gelatinase B), sequence (P14780 94-707, species assumed): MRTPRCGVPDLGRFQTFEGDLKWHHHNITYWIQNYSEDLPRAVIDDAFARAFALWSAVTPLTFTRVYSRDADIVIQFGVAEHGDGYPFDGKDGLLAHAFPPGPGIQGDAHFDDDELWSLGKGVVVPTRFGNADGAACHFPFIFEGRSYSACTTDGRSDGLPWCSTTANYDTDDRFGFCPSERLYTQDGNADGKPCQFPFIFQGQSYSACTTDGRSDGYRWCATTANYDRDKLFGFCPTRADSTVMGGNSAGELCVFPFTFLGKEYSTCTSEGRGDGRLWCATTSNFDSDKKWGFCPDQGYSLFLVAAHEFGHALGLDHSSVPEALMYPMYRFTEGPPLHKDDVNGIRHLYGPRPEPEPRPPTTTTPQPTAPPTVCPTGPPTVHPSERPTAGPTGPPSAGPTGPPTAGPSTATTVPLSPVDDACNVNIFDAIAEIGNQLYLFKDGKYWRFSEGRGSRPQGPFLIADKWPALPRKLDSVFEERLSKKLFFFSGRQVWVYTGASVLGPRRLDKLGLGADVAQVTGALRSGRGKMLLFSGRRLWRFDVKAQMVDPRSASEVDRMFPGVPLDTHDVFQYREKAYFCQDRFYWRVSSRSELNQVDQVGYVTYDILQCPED
MMP-3CD (catalytic domain of stromelysin-1), sequence (P08254 100-272 limits assumed): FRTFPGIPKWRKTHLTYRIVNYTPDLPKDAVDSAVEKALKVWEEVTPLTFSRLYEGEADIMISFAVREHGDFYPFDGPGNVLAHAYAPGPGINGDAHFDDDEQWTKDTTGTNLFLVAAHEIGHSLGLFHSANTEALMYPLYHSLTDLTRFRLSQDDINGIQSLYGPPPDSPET

SMILES | IC50 [1] | IC50 [2] | IC50 [3] | IC50 [4] | IC50 [5] | IC50 [6] | IC50 [7]
COc1ccc(CNC(=O)c2ccc3c(c2)S(=O)(=O)N(Cc2ccccc2)C(=O)N3C)cc1 [Example 5, 2-Benzyl-4-methyl-1,1,3-trioxo-1,2,3,4-tetrahydro-1l^6-benzo[1,2,4]thiadiazine-7-carboxylic acid 4-methoxy-benzylamide] | > 30 µM | > 30 µM | > 30 µM | > 30 µM | 51 µM | > 100 µM | 0.17 µM
CN1C(=O)N(Cc2ccc(C(=O)O)cc2)S(=O)(=O)c2cc(C(=O)NCc3ccccc3)ccc21 [Example 11, 4-(7-Benzylcarbamoyl-4-methyl-1,1,3-trioxo-3,4-dihydro-H-1l^6-benzo[1,2,4]thiadiazin-2-ylmethyl)-benzoic Acid] | > 100 µM | > 100 µM | > 100 µM | > 100 µM | > 100 µM | > 100 µM | 0.066 µM
COc1ccc(CNC(=O)c2ccc3c(c2)S(=O)(=O)N(Cc2ccc(C(=O)O)cc2)C(=O)N3C)cc1 [Example 13, 4-[7-(4-Methoxy-benzylcarbamoyl)-4-methyl-1,1,3-trioxo-3,4-dihydro-1H-1l^6-benzo[1,2,4]thiadiazin-2-ylmethyl]-benzoic Acid] | > 100 µM | > 100 µM | 64 µM | > 100 µM | > 100 µM | > 100 µM | 0.011 µM
COc1cc(CNC(=O)c2ccc3c(c2)S(=O)(=O)N(Cc2ccccc2)C(=O)N3C)ccn1 [Example 21, 2-Benzyl-4-methyl-1,1,3-trioxo-1,2,3,4-tetrahydro-1l^6-benzo[1,2,4]thiadiazine-7-carboxylic acid (2-methoxy-pyridin-4-ylmethyl)-amide] | > 30 µM | > 100 µM | > 30 µM | > 30 µM | > 30 µM | – | 0.155 µM
COc1ccc(CNC(=O)c2ccc3c(c2)S(=O)(=O)N(Cc2ccc4ccccc4c2)C(=O)N3C)cc1 [Example 22, 4-Methyl-2-naphthalen-2-ylmethyl-1,1,3-trioxo-1,2,3,4-tetrahydro-1l^6-benzo[1,2,4]thiadiazine-7-carboxylic acid 4-methoxy-benzylamide] | > 30 µM | > 30 µM | > 30 µM | > 30 µM | > 30 µM | – | 0.62 µM
CN1C(=O)N(Cc2ccccc2)S(=O)(=O)c2cc(C(=O)NCc3ccc4nsnc4c3)ccc21 [Example 24, 2-Benzyl-4-methyl-1,1,3-trioxo-1,2,3,4-tetrahydro-1l^6-benzo[1,2,4]thiadiazine-7-carboxylic acid (2,1,3-benzothiadiazol-5-ylmethyl)-amide] | > 30 µM | > 30 µM | 13 µM | > 30 µM | > 30 µM | – | 0.125 µM
CN1C(=O)N(Cc2ccc(C(=O)O)cc2)S(=O)(=O)c2cc(C(=O)NCc3ccc(F)cc3)ccc21 [Example 25, 4-[7-(4-Fluoro-benzylcarbamoyl)-4-methyl-1,1,3-trioxo-3,4-dihydro-1H-1l^6-benzo[1,2,4]thiadiazin-2-ylmethyl]-benzoic Acid] | > 100 µM | > 100 µM | > 30 µM | > 100 µM | > 100 µM | – | 0.019 µM
COc1ccc(CNC(=O)c2ccc3c(c2)S(=O)(=O)N(Cc2ccc(C(=O)N4CCCCC4)cc2)C(=O)N3C)cc1 [Example 27, 4-Methyl-1,1,3-trioxo-2-[4-(piperidine-1-carbonyl)-benzyl]-1,2,3,4-tetrahydro-1l^6-benzo[1,2,4]thiadiazine-7-carboxylic acid 4-methoxy-benzylamide] | > 30 µM | > 30 µM | 10 µM | > 30 µM | > 30 µM | – | 0.29 µM
COc1ccc(CNC(=O)c2ccc3c(c2)S(=O)(=O)N(Cc2ccc(C(=O)NC(C(=O)O)C(C)C)cc2)C(=O)N3C)cc1 (stereo not drawn) [Example 28, 2-{4-[7-(4-Methoxy-benzylcarbamoyl)-4-methyl-1,1,3-trioxo-3,4-dihydro-1l^6-benzo[1,2,4]thiadiazin-2-ylmethyl]-benzoylamino}-3-methyl-butyric Acid] | > 100 µM | > 100 µM | > 30 µM | > 100 µM | > 100 µM | – | 0.25 µM
COc1ccc(CNC(=O)c2ccc3c(c2)S(=O)(=O)N(Cc2ccc(C#N)cc2)C(=O)N3C)cc1 [Example 29, 2-(4-Cyano-benzyl)-4-methyl-1,1,3-trioxo-1,2,3,4-tetrahydro-1l^6-benzo[1,2,4]thiadiazine-7-carboxylic acid 4-methoxy-benzylamide] | > 30 µM | > 30 µM | 9.4 µM | > 30 µM | > 30 µM | – | 0.13 µM
COc1ccc(CNC(=O)c2ccc3c(c2)S(=O)(=O)N(Cc2ccc(CC(=O)O)cc2)C(=O)N3C)cc1 [Example 30, {4-[7-(4-Methoxy-benzylcarbamoyl)-4-methyl-1,1,3-trioxo-3,4-dihydro-1H-1l^6-benzo[1,2,4]thiadiazin-2-ylmethyl]-phenyl}-acetic Acid] | > 100 µM | > 100 µM | > 30 µM | > 100 µM | 82 µM | – | 0.0355 µM
COc1cccc(CNC(=O)c2ccc3c(c2)S(=O)(=O)N(Cc2ccc(C(=O)O)cc2)C(=O)N3C)c1 [Example 31, 4-[7-(3-Methoxy-benzylcarbamoyl)-4-methyl-1,1,3-trioxo-3,4-dihydro-1H-1l^6-benzo[1,2,4]thiadiazin-2-ylmethyl]-benzoic Acid] | > 100 µM | > 100 µM | > 30 µM | > 100 µM | > 30 µM | – | 0.00485 µM
COc1ccc(CNC(=O)c2ccc3c(c2)S(=O)(=O)N(Cc2ccc(-c4nn[nH]n4)cc2)C(=O)N3C)cc1 [Example 32, 4-Methyl-1,1,3-trioxo-2-[4-(2H-tetrazol-5-yl)-benzyl]-1,2,3,4-tetrahydro-1l^6-benzo[1,2,4]thiadiazine-7-carboxylic acid 4-methoxy-benzylamide] | > 100 µM | > 100 µM | 15 µM | > 100 µM | > 30 µM | – | 0.0062 µM
COc1cccc(CNC(=O)c2ccc3c(c2)S(=O)(=O)N(Cc2ccccc2)C(=O)N3C)c1 [Example 34, 2-Benzyl-4-methyl-1,1,3-trioxo-1,2,3,4-tetrahydro-1l^6-benzo[1,2,4]thiadiazine-7-carboxylic acid 3-methoxy-benzylamide] | > 30 µM | > 30 µM | > 100 µM | > 30 µM | > 30 µM | – | 0.0625 µM
